This note sets out measurements from US20140331365A1 (priority 2008, published 2014).

Entries after “also recorded” stand apart in the source; their conditions may differ.

For assay [1], the system named is soybean root cells. Type of assay: cell-based. The settings on record: for stimulation of Avr1b(N)-GFP uptake into soybean roots: after 9 hr.
Assay [2] concerns soybean leaf cells. Type of assay: cell-based.
Assay [3] deals with AvrL567(N)-GFP. Type of assay: binding, Melampsora lini.
Assay [4] relates to Avr1b(N)-GFP. Type of assay: binding, Phytophthora sojae.

Regarding `CCCCCCCC(=O)OC[C@H](COP(=O)(O)OC1[C@H](O)[C@H](O)C(OP(=O)(O)O)[C@H](O)[C@H]1O)OC(=O)CCCCCCC` (stereo partly drawn) [di-octanoyl-PI-4-P], in assay [1], the “promotion of uptake of Avr1b(N)-GFP and AvrL567(N)-GFP proteins containing alanine substitutions in the RXLR and dEER motifs” value was “did not promote the uptake”; the “stimulation of Arg9-GFP uptake in soybean root cells” value was “does not stimulate uptake”; the “stimulation of AvrL567(N)-GFP uptake into soybean roots” value was “strongly stimulated”; the “stimulation of Avr1b(N)-GFP uptake into soybean roots” value was “strong stimulation; also recorded: stimulated”.

Consider phosphatidyl inositol [PI], for which the “stimulation of Avr1b(N)-GFP uptake into soybean roots” value in assay [1] is recorded as “did not stimulate uptake”.

In turn, AAAA came in with an ablation in assay [2] of 0.

Turning to Arg9, in assay [2], the “Avr1b function / cell re-entry in particle bombardment assay (reduction of GUS-positive blue spots with Rps1b)” value is listed as “could functionally replace the RXLR2 motif”.

On to `O=P(O)(O)O[C@@H]1C(O)[C@H](OP(=O)(O)O)[C@@H](O)C(O)[C@H]1O` (stereo partly drawn) [1,3-IP2, Inositol 1,3 diphosphate], for which, in assay [1], the “inhibition of entry of Avr2-GFP into soybean root cells” value is reported as “inhibited” and the “inhibition of entry of AvrLm6-GFP into soybean root cells” value is “inhibited”.

As for `O=P(O)(O)OC1[C@@H](O)[C@H](O)C(OP(=O)(O)O)[C@H](O)[C@@H]1O` (stereo partly drawn) [IP2, Inositol-1,4-diphosphate], in assay [3], the “inhibition of binding of AvrL567(N)-GFP to PI-4-P-containing liposomes” value is given as “completely block binding”. In assay [1], the “inhibition of entry of Avr2-GFP into soybean root cells” value is “inhibited”, the “inhibition of entry of AvrLm6-GFP into soybean root cells” value was “inhibited”, the “inhibition of uptake/entry of Arg9-GFP into soybean root cells” value is “completely unaffected” and the “inhibition of uptake/entry of Avr1b(N)-GFP into soybean root cells” value was “almost completely blocked”. The “inhibition of uptake/entry of AvrL567(N)-GFP into soybean root cells” value in assay [1] is given as “almost completely blocked”. Further, the “inhibition of binding of Avr1b(N)-GFP to PI-4-P-containing liposomes” value in assay [4] is given as “inhibited binding”.

For the compound phosphatidyl choline [PC], the “stimulation of Avr1b(N)-GFP uptake into soybean roots” value in assay [1] is recorded as “did not stimulate uptake”.

For phosphatidyl ethanolamine [PE], in assay [1], the “stimulation of Avr1b(N)-GFP uptake into soybean roots” value is “did not stimulate uptake”.
